Data on 18 compounds can be found in patent US20100216779A1 (GLAXOSMITHKLINE LLC, priority 2007, published 2010).

Format in all cases: cell-based
Assay [1] concerns the target T1, human IGF-1R (NIH-3T3 cells over expressing human IGF-1R) (Homo sapiens, UniProt P08069).
T1 construct: expressed in transfected cells; host or cells: NIH-3T3 (mouse fibroblasts)
Description: IGF-1R cellular autophosphorylation (DELFIA). The settings on record: IGF-1 stimulated. On the procedure: (§1) D. IGF-1R and IR Cellular Autophosphorylation (DELFIA)
(§2) NIH-3T3 cells over expressing human IGF-1R or IR were plated in 96-well plates (10,000 cells/well) in culture media containing 10% fetal bovine serum and incubated at 37° C. in a 5% CO2 incubator. Twenty four hours post-plating, cells were treated with different concentrations of test compounds ranging from 30 uM to 1.5 nM. Two hours after compound addition, cells were stimulated with either human IGF-1 (30 ng/mL) or insulin (3 ug/mL) for 15 minutes. Cell lysates are analyzed for phosphorylated receptors using dissociation enhanced lanthanide fluor-immuno assay (DELFIA) with anti-IGF-1R (MAB391, R&D Systems, Minneapolis, Minn.) or anti-IR[…](sc-711, Santa Cruz Biotechnology, Santa Cruz, Calif.) capture antibody and europium-labeled anti-pTyr antibody (Eu-N1 PT66, Perkin Elmer, Waltham, Mass.) for detection. The fluorescence signal for cells treated with compounds was expressed as percent relative to 100% stimulation (IGF-1 or insulin stimulated signal). […]

Assay [2] concerns the target T2, IR (NIH-3T3 cells over expressing human IGF-1R or IR) (Homo sapiens, UniProt P06213).
T2 construct: expressed in transfected cells; host or cells: NIH-3T3 (mouse fibroblasts)
Description: IR cellular autophosphorylation (DELFIA). The settings on record: NIH-3T3 cells over expressing IR, insulin stimulated. On the procedure: as §1, §2

The test system of a further assay is COLO205 (colon). Put plainly: Inhibition of cell proliferation, CellTiter-Glo, COLO205. To be noted: Homo sapiens, COLO 205, 72 h. On the procedure:
C. Inhibition of Cell Proliferation
Cell proliferation was measured by either CellTiter-Glo (measures cellular ATP level as a surrogate for total cell number) or by InCell analyzer (counts number of nuclei as a measure of cell number). For CellTiter-Glo assay, exponentially growing cell lines of different tumor origins, cultured in appropriate media containing 10% fetal bovine serum at 37° C. in a 5% CO2 incubator, were plated at low density (less than 2000 cells/well) in 96-well plates. […] Several wells were left untreated as a control. Seventy two hours post-treatment, cell numbers were determined using 50-100 ul per well of CellTiter-Glo (Promega #G7573). Plates were incubated at 37° C. for 30 minutes and the chemiluminescent signal was read on the Victor V or Envison 2100 reader. […]
On the technique in general: ATP-based viability assays read luminescence as a measure of living cells.

T1 sequence (P08069 31-1367): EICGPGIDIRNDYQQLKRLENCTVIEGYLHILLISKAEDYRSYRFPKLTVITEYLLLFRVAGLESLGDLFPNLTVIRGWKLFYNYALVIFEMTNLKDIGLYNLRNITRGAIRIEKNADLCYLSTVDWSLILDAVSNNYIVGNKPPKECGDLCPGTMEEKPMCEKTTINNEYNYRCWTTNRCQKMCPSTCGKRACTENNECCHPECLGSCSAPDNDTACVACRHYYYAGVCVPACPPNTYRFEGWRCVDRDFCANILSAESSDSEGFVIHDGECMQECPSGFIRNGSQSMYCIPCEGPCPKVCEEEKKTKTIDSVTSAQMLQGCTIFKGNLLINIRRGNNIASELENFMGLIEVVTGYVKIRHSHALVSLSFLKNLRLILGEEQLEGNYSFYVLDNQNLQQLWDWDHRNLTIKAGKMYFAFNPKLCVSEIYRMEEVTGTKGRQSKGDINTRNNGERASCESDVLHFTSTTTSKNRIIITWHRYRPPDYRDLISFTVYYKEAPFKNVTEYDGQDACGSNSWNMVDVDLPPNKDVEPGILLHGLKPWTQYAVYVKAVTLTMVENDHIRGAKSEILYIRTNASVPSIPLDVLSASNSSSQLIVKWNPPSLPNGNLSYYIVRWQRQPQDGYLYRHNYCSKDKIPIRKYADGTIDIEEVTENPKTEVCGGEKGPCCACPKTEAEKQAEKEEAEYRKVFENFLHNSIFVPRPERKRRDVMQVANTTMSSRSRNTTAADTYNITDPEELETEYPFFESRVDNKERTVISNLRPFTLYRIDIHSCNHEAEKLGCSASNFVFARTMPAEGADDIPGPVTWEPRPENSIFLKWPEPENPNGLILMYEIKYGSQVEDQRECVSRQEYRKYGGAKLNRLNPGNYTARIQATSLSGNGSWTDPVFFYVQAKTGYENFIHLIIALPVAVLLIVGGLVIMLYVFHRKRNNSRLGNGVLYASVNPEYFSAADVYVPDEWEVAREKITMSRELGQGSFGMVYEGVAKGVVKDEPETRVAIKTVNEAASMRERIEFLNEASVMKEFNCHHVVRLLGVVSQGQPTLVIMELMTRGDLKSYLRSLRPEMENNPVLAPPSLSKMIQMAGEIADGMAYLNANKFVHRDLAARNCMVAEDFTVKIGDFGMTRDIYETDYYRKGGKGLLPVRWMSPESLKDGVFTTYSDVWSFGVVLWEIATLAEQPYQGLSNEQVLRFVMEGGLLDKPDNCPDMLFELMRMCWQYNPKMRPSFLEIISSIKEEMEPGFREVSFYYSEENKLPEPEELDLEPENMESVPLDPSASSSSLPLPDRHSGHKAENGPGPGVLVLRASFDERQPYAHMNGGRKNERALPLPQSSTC
T2 sequence (P06213 28-1382): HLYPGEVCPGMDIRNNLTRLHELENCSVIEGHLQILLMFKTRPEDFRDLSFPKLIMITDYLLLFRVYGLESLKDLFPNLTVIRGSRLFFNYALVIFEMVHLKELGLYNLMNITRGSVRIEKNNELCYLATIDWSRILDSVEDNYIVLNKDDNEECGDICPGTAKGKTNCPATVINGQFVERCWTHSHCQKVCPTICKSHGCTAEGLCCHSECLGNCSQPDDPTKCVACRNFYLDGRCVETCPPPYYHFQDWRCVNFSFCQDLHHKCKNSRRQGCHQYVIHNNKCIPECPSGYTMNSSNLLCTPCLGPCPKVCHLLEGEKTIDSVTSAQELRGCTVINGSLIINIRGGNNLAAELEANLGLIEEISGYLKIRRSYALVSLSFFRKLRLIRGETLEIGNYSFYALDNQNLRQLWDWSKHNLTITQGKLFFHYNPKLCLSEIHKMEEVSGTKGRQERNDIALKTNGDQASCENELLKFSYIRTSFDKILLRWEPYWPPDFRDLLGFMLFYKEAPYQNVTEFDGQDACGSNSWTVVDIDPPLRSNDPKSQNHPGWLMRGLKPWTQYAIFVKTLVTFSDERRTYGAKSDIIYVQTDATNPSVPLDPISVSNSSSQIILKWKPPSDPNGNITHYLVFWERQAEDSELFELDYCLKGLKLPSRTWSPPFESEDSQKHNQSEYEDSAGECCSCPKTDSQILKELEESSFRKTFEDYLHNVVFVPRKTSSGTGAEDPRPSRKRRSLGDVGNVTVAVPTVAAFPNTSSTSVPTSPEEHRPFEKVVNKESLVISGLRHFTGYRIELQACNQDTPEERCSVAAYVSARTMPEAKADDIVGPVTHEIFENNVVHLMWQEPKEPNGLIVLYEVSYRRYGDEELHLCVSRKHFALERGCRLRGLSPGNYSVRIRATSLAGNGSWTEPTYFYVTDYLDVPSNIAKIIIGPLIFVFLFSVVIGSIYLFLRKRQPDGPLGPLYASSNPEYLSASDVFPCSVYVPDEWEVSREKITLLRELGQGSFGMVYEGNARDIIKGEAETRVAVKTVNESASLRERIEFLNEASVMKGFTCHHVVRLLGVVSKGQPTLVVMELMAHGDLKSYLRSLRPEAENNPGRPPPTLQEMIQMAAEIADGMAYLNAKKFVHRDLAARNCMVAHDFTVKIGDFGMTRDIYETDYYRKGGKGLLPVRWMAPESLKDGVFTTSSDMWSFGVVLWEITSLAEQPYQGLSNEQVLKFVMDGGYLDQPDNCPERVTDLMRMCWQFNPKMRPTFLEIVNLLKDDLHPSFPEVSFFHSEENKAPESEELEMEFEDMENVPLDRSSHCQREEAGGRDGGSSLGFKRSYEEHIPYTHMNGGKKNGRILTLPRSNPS

For `COc1cc(N2CCC(N3CCCCC3)CC2)ccc1Nc1nccc(-c2c(-c3cccc(C(=O)Nc4ccc(F)cc4Cl)c3)nc3ccccn23)n1` [Example 44, 3-[3-(2-{[4-(1,4′-bipiperidin-1′-yl)-2-(methyloxy)phenyl]amino}-4-pyrimidinyl)imidazo[1,2-a]pyridin-2-yl]-N-(2-chloro-4-fluorophenyl)benzamide], the 50% inhibitory concentration (IC50) (commonly the midpoint of a concentration-inhibition curve) in assay [1] was < 100 nM; in assay [2] it was 100 to 500 nM; in the assay on COLO205 (colon), 250 to 1000 nM.
With `COc1cc(N2CCC(N3CCCCC3)CC2)c(F)cc1Nc1nccc(-c2c(-c3cccc(C(=O)Nc4c(F)cccc4F)c3)nc3ccccn23)n1` [Example 106, 3-[3-(2-{[4-(1,4′-bipiperidin-1′-yl)-5-fluoro-2-(methyloxy)phenyl]amino}-4-pyrimidinyl)imidazo[1,2-a]pyridin-2-yl]-N-(2,6-difluorophenyl)benzamide], the IC50 in assay [1] is < 100 nM; in assay [2], < 100 nM; in the assay with COLO205 (colon), 250 to 1000 nM.
Turning to `COc1cc(CCCN2CCN(C)CC2)ccc1Nc1nccc(-c2c(-c3ccc(OC)c(C(=O)Nc4c(F)cccc4F)c3)nc3ccccn23)n1` [Example 142, N-(2,6-difluorophenyl)-2-(methyloxy)-5-{3-[2-({2-(methyloxy)-4-[3-(4-methyl-1-piperazinyl)propyl]phenyl}amino)-4-pyrimidinyl]imidazo[1,2-a]pyridin-2-yl}benzamide], the IC50 is < 100 nM in assay [1], < 100 nM in assay [2] and 250 to 1000 nM with COLO205 (colon).
`COc1cc(N2CCC(N3CCCCC3)CC2)c(C)cc1Nc1nccc(-c2c(-c3cccc(C(=O)Nc4c(F)cccc4F)c3)nc3ccccn23)n1` [Example 108, 3-[3-(2-{[4-(1,4′-bipiperidin-1′-yl)-5-methyl-2-(methyloxy)phenyl]amino]-4-pyrimidinyl)imidazo[1,2-a]pyridin-2-yl]-N-(2,6-difluorophenyl)benzamide]: the IC50 in assay [1] and in assay [2] was < 100 nM in each case.
As for `Cc1cc(OC2CCN(C)CC2)ccc1Nc1nccc(-c2c(-c3cccc(C(=O)Nc4c(F)cccc4F)c3)nc3ccccn23)n1` [Example 7, N-(2,6-difluorophenyl)-3-{3-[2-({2-methyl-4-[(1-methyl-4-piperidinyl)oxy]phenyl}amino)-4-pyrimidinyl]imidazo[1,2-a]pyridin-2-yl}benzamide], the IC50 was < 100 nM in assay [1] and > 500 nM in assay [2].
For `COc1cc(-c2nnc(CN(C)C)o2)ccc1Nc1nccc(-c2c(-c3cccc(C(=O)Nc4c(F)cccc4F)c3)nc3ccccn23)n1` [Example 27, N-(2,6-difluorophenyl)-3-[3-(2-{[4-{5-[(dimethylamino)methyl]-1,3,4-oxadiazol-2-yl}-2-(methyloxy)phenyl]amino}-4-pyrimidinyl)imidazo[1,2-a]pyridin-2-yl]benzamide], the half-inhibitory concentration (IC50) in assay [2] was > 500 nM; in the assay with COLO205 (colon), > 1000 nM.
With `COc1cc(N2CCC(N3CCN(CCF)CC3)CC2)c(Cl)cc1Nc1nccc(-c2c(-c3cccc(C(=O)Nc4c(F)cccc4F)c3)nc3ccccn23)n1` [Example 112, 3-[3-(2-{[5-chloro-4-{4-[4-(2-fluoroethyl)-1-piperazinyl]-1-piperidinyl}-2-(methyloxy)phenyl]amino}-4-pyrimidinyl)imidazo[1,2-a]pyridin-2-yl]-N-(2,6-difluorophenyl)benzamide], the 50% inhibitory concentration (IC50) in assay [1] and in assay [2] was < 100 nM in each case.
As for `CCc1cc(Nc2nccc(-c3c(-c4ccc(OC)c(C(=O)Nc5c(F)cccc5F)c4)nc4ccccn34)n2)c(OC)cc1N1CCN(CCS(C)(=O)=O)CC1` [Example 187, N-(2,6-difluorophenyl)-5-(3-{2-[(5-ethyl-2-(methyloxy)-4-{4-[2-(methylsulfonyl)ethyl]-1-piperazinyl}phenyl)amino]-4-pyrimidinyl}imidazo[1,2-a]pyridin-2-yl)-2-(methyloxy)benzamide], the concentration for half-maximal inhibition (IC50) in assay [1] and in assay [2] was < 100 nM throughout.
Take `Cc1cc(OC2CCN(CCS(C)(=O)=O)CC2)ccc1Nc1nccc(-c2c(-c3cccc(C(=O)Nc4c(F)cccc4F)c3)nc3ccccn23)n1` [Example 8, N-(2,6-difluorophenyl)-3-[3-(2-{[2-methyl-4-({1-[2-(methylsulfonyl)ethyl]-4-piperidinyl}oxy)phenyl]amino}-4-pyrimidinyl)imidazo[1,2-a]pyridin-2-yl]benzamide]: the IC50 in assay [1] is < 100 nM; in assay [2], 100 to 500 nM.
Regarding `COc1cc(N2CCC(N3CC[C@@H](F)C3)CC2)ccc1Nc1nccc(-c2c(-c3cccc(C(=O)Nc4c(F)cccc4F)c3)nc3ccccn23)n1` [Example 76, N-(2,6-difluorophenyl)-3-[3-(2-{[4-{4-[(3R)-3-fluoro-1-pyrrolidinyl]-1-piperidinyl}-2-(methyloxy)phenyl]amino}-4-pyrimidinyl)imidazo[1,2-a]pyridin-2-yl]benzamide], the results for the IC50 (in assay [1]; in the assay with COLO205 (colon)) were < 100 nM and 250 to 1000 nM, respectively.
With `Cc1cc(OC2CCNCC2)ccc1Nc1nccc(-c2c(-c3cccc(C(=O)Nc4c(F)cccc4F)c3)nc3ccccn23)n1` [Example 6, N-(2,6-difluorophenyl)-3-[3-(2-{[2-methyl-4-(4-piperidinyloxy)phenyl]amino}-4-pyrimidinyl)imidazo[1,2-a]pyridin-2-yl]benzamide], the concentration for half-maximal inhibition (IC50) in assay [1] was 100 to 500 nM; in assay [2], > 500 nM.
Consider `COc1cc(N2CCC(OC)CC2)ccc1Nc1nccc(-c2c(-c3cccc(C(=O)Nc4c(F)cccc4F)c3)nc3ccccn23)n1` [Example 125, N-(2,6-difluorophenyl)-3-{3-[2-({2-(methyloxy)-4-[4-(methyloxy)-1-piperidinyl]phenyl}-amino)-4-pyrimidinyl}imidazo[1,2-a]pyridin-2-yl]benzamide], for which the IC50 is < 100 nM in assay [1] and 250 to 1000 nM in the assay on COLO205 (colon).
As for `COc1cc(N2CCC(N3CCC[C@H](O)C3)CC2)ccc1Nc1nccc(-c2c(-c3ccc(OC)c(C(=O)Nc4c(F)cccc4F)c3)nc3ccccn23)n1` [Example 84, N-(2,6-difluorophenyl)-5-[3-(2-{[4-[(3S)-3-hydroxy-1,4′-bipiperidin-1′-yl]-2-(methyloxy)-phenyl]amino}-4-pyrimidinyl)imidazo[1,2-a]pyridin-2-yl]-2-(methyloxy)benzamide], the IC50 in assay [1] is < 100 nM; in the assay with COLO205 (colon), < 250 nM.
In the case of `CN(C)CCOc1cccc(Nc2nccc(-c3c(-c4cccc(C(=O)Nc5c(F)cccc5F)c4)nc4ccccn34)n2)c1` [Example 20, N-(2,6-difluorophenyl)-3-(3-{2-[(3-{[2-(dimethylamino)ethyl]oxy}phenyl)amino]-4-pyrimidinyl}imidazo[1,2-a]pyridin-2-yl)benzamide], the IC50 in assay [1] is 100 to 500 nM; in the assay with COLO205 (colon), < 250 nM.
For `COc1cc(CCN2CCN(C)CC2)ccc1Nc1nccc(-c2c(-c3cccc(C(=O)Nc4c(F)cccc4F)c3)nc3ccccn23)n1` [Example 132, N-(2,6-difluorophenyl)-3-{3-[2-({2-(methyloxy)-4-[2-(4-methyl-1-piperazinyl)ethyl]phenyl}amino)-4-pyrimidinyl]imidazo[1,2-a]pyridin-2-yl}benzamide], the IC50 in assay [1] was < 100 nM; in the assay with COLO205 (colon) it was 250 to 1000 nM.
`COc1cc(N2CCC(N3CCOCC3)CC2)ccc1Nc1nccc(-c2c(-c3cccc(C(=O)Nc4c(F)cccc4F)c3)nc3ccccn23)n1` [Example 38, N-(2,6-difluorophenyl)-3-{3-[2-({2-(methyloxy)-4-[4-(4-morpholinyl)-1-piperidinyl]phenyl}amino)-4-pyrimidinyl]imidazo[1,2-a]pyridin-2-yl}benzamide]: the IC50 in assay [1] was < 100 nM; in the assay on COLO205 (colon), 250 to 1000 nM.
As to `COc1cc(CCN2CCCCC2)c(F)cc1Nc1nccc(-c2c(-c3cccc(C(=O)Nc4c(F)cccc4F)c3)nc3ccccn23)n1` [Example 128, N-(2,6-difluorophenyl)-3-{3-[2-({5-fluoro-2-(methyloxy)-4-[2-(1-piperidinyl)ethyl]phenyl}-amino)-4-pyrimidinyl]imidazo[1,2-a]pyridin-2-yl}benzamide], the values for the IC50 (in assay [1]; with COLO205 (colon)) were 100 to 500 nM and 250 to 1000 nM, respectively.
The like results for `COc1ccn2c(-c3ccnc(Nc4cccc(OCCN(C)C)c4)n3)c(-c3ccc(OC)c(C(=O)Nc4c(F)cccc4F)c3)nc2c1` [Example 3, N-(2,6-difluorophenyl)-5-[3-{2-[(3-{[2-(dimethylamino)ethyl]oxy}phenyl)amino]-4-pyrimidinyl}-7-(methyloxy)imidazo[1,2-a]pyridin-2-yl]-2-(methyloxy)benzamide] were, in that order, 100 to 500 nM and 250 to 1000 nM.
